Experimental findings from patent publication US10266482B2, “Long-term memory inducing agent” (NATIONAL UNIVERSITY CORPORATION TOKYO MEDICAL AND DENTAL …, priority 2017, dated 2019) are described below.

A short description of data set [1]: Measurement of brain AMK level after intraperitoneal administration. Type of data set: in vivo, ICR mice. Conditions: 1 mg/kg bw intraperitoneal. How it is done:
8-week-old male ICR mice were purchased. Each of the experiment individuals was raised in an individual cage, and adapted to the raising environment for at least a week before use. The rearing room was kept at 22° C. at cycles of 12 hours of light period/12 hours of dark period, and feed and drinking water were given freely. All of the experiments were conducted during the latter 6 hours of the light period.
N(1)-acetyl-5-methoxykynuramine (AMK) was used as a drug. AMK was diluted with physiological saline. In the administration experiment, a dosage of 0.001 mg-1 mg/3.65 ml/kg bw was intraperitoneally administered.
1 mg/kg bw of AMK was intraperitoneally administered, and 5, 15, 30, 60, 120 and 240 minutes later, the hippocampus and a region including the perirhinal cortex of the temporal lobe that was assumed to be involved in object recognition memory were collected to measure the AMK levels with a high-performance liquid chromatograph mass spectrometer. As a control group, AMK levels in untreated individuals were also measured

Data set [2] has as its system aged crickets. The experiment in a line: Olfactory associative learning test in aged crickets (age-related memory disorder, training four times). Format: in vivo, Gryllus bimaculatus. Conditions: 1 μM, 3 μl. On the procedure: Male crickets about one week old (young) or three week old (aged) following molting into adult forms were used. Each of the crickets was placed into a 100 ml beaker three days before the experiment, and deprived of water for 2-3 days to enhance the desire of taking water. As the feed, about 10 pieces of insect feed were placed into the beaker. A 1-ml syringe was used for smell and reward associative conditioning upon learning/training. The syringe contained water as the reward while a piece of paper (3 mm×3 mm) perfumed with peppermint essence was pierced into the needle to about 1 cm from the tip thereof. In this learning/training, the filter paper on the needle was brought near the antennae of the cricket to allow it to smell for 3 seconds and then a drop of water was put out from the tip of the needle and applied to the mouth of the cricket. When the associative conditioning was conducted for four times, the conditionings were conducted at intervals of 5 minutes. Smell preference was examined by placing each cricket into a test arena. The arena consisted of a “standby chamber” and a “test chamber”. […] The smell source was a plastic pot containing filter paper perfumed with essence of a smell (peppermint or vanilla) and covered with a gauze lid. In the preference test, each cricket was placed into the test chamber and allowed to walk freely for 4 minutes to search for the two smell sources. Two minutes after the start of the test, a rotary board having the smell sources was rotated to reverse the positions of the vanilla and the peppermint smells. During the test, the time the cricket spent placing its mouth to the gauze of the smell source was measured as a visiting time to the smell source, and the ratio of the visiting times of the two types of smells (PI value: preference index) was calculated according to the following formula to assess the relative preference to the mint smell. PI value=Tp/(Tp+Tv)×100 • Tp: Searching time for smell associated with the reward (peppermint) • Tv: Searching time for smell not associated with the reward (vanilla) If the preferences for the two smells are equivalent, PI will be 50. Since crickets inherently prefer vanilla smell over peppermint smell, an average PI value prior to the learning/training is usually 25-35, The preference test was conducted before and after the learning/training to examine whether preference for the smell changes due to the learning/training. […] Melatonin, 6-HM, kynurenine, kynuramine and 8br-cGMP were purchased from SIGMA Aldrich, AFMK was purchased from Cayman Chemical, AMK was purchased from Toronto Research Chemicals and CHX was purchased from Wako Pure Chemical Industries. The drugs other than 8br-cGMP and CHX were first dissolved in ethanol and then diluted with physiological saline for crickets to the respective concentrations. In the administration experiment, 3 μl was administered using a 10-μl syringe to the brain via an aperture opened through a simple eye of the head. PI values were tested before the training and a day after the training in the same group by a Wilcoxon's-test.

For data set [3], the system named is young mice. Put plainly: Object recognition test for young mice, AMK application to the scalp. Type of data set: in vivo, ICR mice. Conditions: 1 μl of 0.4 mg/μl in dimethyl sulfoxide applied to scalp 30 minutes before one 3-minute acquisition trial. How it is done: Two-month-old male ICR mice (young mice) were used. The rearing room was kept at 22° C. at cycles of 12 hours of light period/12 hours of dark period, and feed and drinking water were given freely. All of the experiments were conducted during the latter 6 hours of the light period.
N(1)-acetyl-5-methoxykynuramine (AMK) was used as a drug. AMK was diluted with dimethyl sulfoxide to result a concentration of 0.4 mg/μl. One μl of the diluent was applied to each individual.
In order to examine the effect of AMK application to the skin, the scalps of the mice were depilated the day before the acquisition trial, AMK or dimethyl sulfoxide as a solvent was applied to 1 cm^2 of the scalp under inhalation anesthesia with isoflurane (Pfizer) 30 minutes before the acquisition trial, left for 5 minute to dry, and then the applied surface was protected with patchProtect (SmartPractice).
Test was conducted in the same manner as “5.3 Object recognition test” in Example 5 except that searching time was 3 minutes in the acquisition trial.
Processing was conducted in the same manner as “5.4 Statistical processing” in Example 5.

Structures are written as SMILES.

In the case of `COc1ccc(N)c(C(=O)CCNC(C)=O)c1` [Compound 1, N-[3-(2-amino-5-methoxyphenyl)-3-oxopropyl]-acetamide], in data set [1], the “crossing of the blood-brain barrier” value is recorded as “cross the blood-brain barrier”; the “time to reach and act in the brain following intraperitoneal administration” value is given as “about 5 minutes”. Also, the “AMK concentration in hippocampus and perirhinal cortex as compared to the control group” value in data set [1] (within 5 minutes, thereafter decreased with time) is listed as “significantly increased”. Further, in data set [2] (20 minutes after training for four times), the “improvement in an age-related memory disorder” value is “improvement in an age-related memory disorder was observed”. The “long-term memory formation a day after the training (improvement of age-related memory disorder)” value in data set [2] (20 minutes before training for four times) is recorded as “a long-term memory was formed”. The “long-term memory formation (DI value, test trial 24 hours later)” value in data set [3] was “a long-term memory was formed”.
